Values joined by “and” are separate entries in the source; they are usually repeats but may differ in a detail not shown here. Equal entries are not always repeated. Where two headings read alike, the source gives them in different places. Values belong to the compound of their own block, whether it stands above or below them.
Experiments:
[1] = cited from earlier work
MDS = assay: Subcutaneous amifostine in MDS patients: hematologic responses and adverse effects; assay type: in vivo, human
Excerpt: All patients in the study had MDS and were diagnosed as having one of the following subtypes: refractory anemia, refractory anemia with ring sideroblasts, refractory anemia with excess blasts or refractory anemia with excess blasts in transformation. In addition, the patients had thrombocytopenia (platelets <100,000/μl), neutropenia (ANC or absolute neutrophil count<1500/μl) or a hemoglobin untransfused <10 g/dl and/or were transfusion-dependent as defined by requiring at least 4 units of RBC in the 10 weeks prior to entry.
(§1) Blood pressure was monitored before treatment and after the first dose at 30 minute intervals for up to 90 minutes. […] At least three patients were treated with each dose. […] Hematologic responses to treatment were evaluated by measuring neutrophil count (ANC), platelet count, erythroid response including hemoglobin levels and reticulocyte count, and in vitro colony formation.

[2] = Phase I three-way crossover study: safety assessments / adverse events (NCI Common Toxicity Criteria)
Experimental: If hypotension occurred, the subject was to receive a rapid infusion of 500 mL normal saline and was to be kept supine or in the Trendelenburg position until blood pressure returned to baseline. During this time, blood pressure was monitored every 3 minutes.
All subjects who had received at least one dose of protocol therapy were considered evaluable for safety. […] Toxicity was based on National Cancer Institute (NCI) Common Toxicity Criteria.
Because this was a crossover study to be performed on three successive days, toxicities were assigned to the route of administration on the day the toxicity occurred. A full nonparametric crossover model (likelihood of ratio test) was used to assess toxicities which corrected for period and sequence effects. A PROC CATMOD of SAS@ was used for this analysis.

[3] = tested on: Bone marrow progenitor cells; assay: In vitro colony formation (CFU-GEMM, BFU-E, CFU-GM) of bone marrow progenitor cells from treated MDS patients, methylcellulose assays; assay type: cell-based, human; settings: bone marrow progenitor cells from MDS patients after s.c. amifostine
Experimental: as §1
Bone marrow progenitor cells were recovered from the treated patients and assayed for their ability to form CFU-GEMM, BFU-E and CFU-GM colonies in standard methylcellulose assays.

mucositis = assay: Rat RT model: mucosal radioprotection by IV or SC amifostine at various times before 15.3 Gy head and neck irradiation (mucositis score); assay type: in vivo; settings: rats, 200 mg/kg (1200 mg/m^2), given up to 4 hours prior to radiation therapy (15.3 Gy)
Experimental: A rat RT model was used to examine the protective effects of amifostine following IV as well as subcutaneous (SC) administration, and to investigate the length of time between amifostine administration and RT. In these experiments, rats were given 200 mg/kg (1200 mg/m^2) of amifostine IV or SC, and their head and neck regions exposed to 15.3 Gy of gamma irradiation at various times following amifostine administration. For 10 days after treatment, the rats were weighed and the oral cavities of the rats were examined for signs of mucositis. Mucosal erythema and mucosal edema were scored according to 0-5 and 0-2 scales, respectively, with the scores added to indicate overall mucositis.

[4] = tested on: radiation-induced xerostomia
Experimental: In the phase II study all patients were undergoing radiation therapy for histologically confirmed squamous cell carcinoma of the head and neck region. Patients were allowed to enter the study following surgery with curative intent as soon as the wound has healed but no later than 12 weeks post operatively.
Blood pressure and pulse were obtained prior to subcutaneous administration and repeated 10 minutes following administration. An IV was available to treat hypotension if it occurred. Patients received full supportive care including antiemetics, antibiotics, transfusions of blood and blood products, and the like when needed. Prophylactic antiemetics were not administered. If patients experienced nausea and vomiting they were administered either prochlorperazine, 10 mg PO, 30 minutes prior to therapy, repeating every 4 to 6 hours following therapy as needed or ondansetron, 8 mg PO, 30 minutes prior to therapy, repeating every 4 hours following therapy as needed.
Radiation therapy was provided with linear accelerators with appropriate photon and electron boosting to the nodes or Cobalt 60. The appropriate photon energy was based on optimizing the radiation therapy dose distribution within the target volume and minimizing dose to normal tissue. Patients were reproducibly mobilized and radio-opaque markers were used to delineate the extent of nodal disease and, where possible, the primary tumor. All fields were treated once daily at 1.8-2.0 Gy per fraction, five days per week to a total dose of:
Xerostomia was graded in each subject according to the RTOG criteria.

[5] = tested on: radiation-induced mucositis; assay: Radiation-induced mucositis model, inferior lip of mice (Parkins et al.): body weight, mucosal erythema and edema scores; settings: for Erythema (score) / Oedema (score): individual mice and Mean
[6] = human, in vivo
Experimental: All subjects were sequestered at the study site from the evening before the administration of the first dose of study drug until the final whole blood sample was obtained.
Blood samples (5 to 7 mL each) were collected either by venipuncture or indwelling venous catheter (IVC) heparin lock. If IVC was used, it was inserted in the arm opposite the infusion site. […] For either line, the first 3 to 5 cc of blood were discarded (void volume) prior to blood collection.
To prevent further oxidation of WR-1065, PCA/EDTA was added to the samples prior to centrifugation. Because PCA/EDTA ruptures the cellular content of the blood, the samples were centrifuged for a longer period of time to prevent contamination/metabolism of the active metabolite. Consequently, only the clear supernatant (serum) was used for analysis of WR-1065. In contrast, no PCA/EDTA was added to the blood samples designated for analysis of the parent drug; therefore, plasma samples were prepared for analysis of the parent drug.
WINNONLIN, the WINDOWS version of PCNONLIN, was used for the determination of pharmacokinetic parameters for each subject following each route of administration. Non-compartmental modelling of the data was performed.
AUCs were calculated using extrapolation according to a straightline from the last non-zero point.
The AUCs were then analyzed using an analysis of variance (ANOVA) model with route, period and subject as variables. Sequence was not included in the model as this variable was uniquely determined by route and period. The confidence interval on the ratio of the subcutaneous or oral route to the intravenous route was calculated using the mean square error from the entire ANOVA model.

[7] = tested on: radiation-induced xerostomia; settings: IV Amifostine + RT, cited from earlier work
[8] = intravenous, cancer patients, plasma
[9] = MDS patients, s.c. 500 mg once/day, 17 evaluable
[10] = Intravenous 200 mg/m^2, N = 12, table cells give subject numbers
[11] = Intravenous 200 mg/m^2, N = 12, table cells give subject numbers, listed as amifostine
[12] = Oral 500 mg, N = 12, table cells give subject numbers
[13] = SC amifostine, head and neck cancer patients
[14] = Amifostine (l.p.) at 200 mg/kg + Irradiation (16.5 Gy), day 6 after treatment, 200 mg/kg
[15] = Amifostine (l.p.) at 200 mg/kg + Irradiation (16.5 Gy), day 7 after treatment, 200 mg/kg
[16] = Amifostine (l.p.) at 200 mg/kg + Irradiation (16.5 Gy), day 13 after treatment, 200 mg/kg
[17] = Amifostine (l.p.) at 200 mg/kg + Irradiation (16.5 Gy), day 14 after treatment, 200 mg/kg
[18] = Amifostine (l.p.) at 400 mg/kg + Irradiation (16.5 Gy), day 13 after treatment, 400 mg/kg
[19] = Amifostine (l.p.) at 400 mg/kg + Irradiation (16.5 Gy), day 14 after treatment, 400 mg/kg
[20] = Amifostine (s.c.) at 200 mg/kg + Irradiation (16.5 Gy), day 9 after treatment, 200 mg/kg
[21] = Amifostine (s.c.) at 400 mg/kg + Irradiation (16.5 Gy), day 14 after treatment, 400 mg/kg

Grade 3 hypotension [4, 13]: no reports
Grade 3 nausea/vomiting [4, 13]: no reports
time after administration at which concentration dropped below 10 μM, amifostine (parent drug plus active metabolite) ([6]; iv): 45 min
time after administration at which concentration dropped below 10 μM, amifostine (parent drug) ([6]; iv): approximately 30 minutes
time after administration at which concentration dropped below 1.0 μM, amifostine (parent drug plus active metabolite) ([6]; po): 10 to 13 min
time after administration at which concentration fell below 10 μM, amifostine (parent drug plus active metabolite) ([6]; sc): approximately 50 minutes
time after administration at which concentration fell below 10 μM, amifostine (parent drug) ([6]; sc): approximately 45 minutes
peak levels (maximum whole blood concentration) ([6]; male, iv): about 100 μM
AUC of Combined (parent drug and active metabolite), 500 mg Oral (PO) ([6]; male, po): 0 µM·min
maximum blood levels ([6]; male, sc): about 12 μM
time to maximum and sustained whole blood concentration ([6]; male, sc): 15 to 45 min
SMILES: NCCCNCCSP(=O)(O)O [Amifostine, S-2-(3-aminopropylamino)ethyl dihydrogen phosphorothioate]
amifostine remaining in the plasma ([1]; 6 minutes after intravenous administration): Less than 10%
distribution half-life [1, 8]: less than 1 minute
elimination half-life [1, 8]: approximately 9 minutes
Platelet response, patients with >50,000/μl: Responders (number) (MDS; 3 evaluable): 3
Platelet response, patients with >50,000/μl: Responders (percent) (MDS; 3 evaluable): 100%
BM Blasts ↑ (RAEB): patients (number; RAEB-t, AML) (MDS; 5 evaluable): 2 (RAEB-t, AML)
Platelet response, patients with <50,000/μl: Responders (number) (MDS; 6 evaluable): 0
Hemoglobin >1.5 g/dl ↑: Responders (number) (MDS; 7 evaluable): 1
Ring Sideroblast ↓: Responders (number) (MDS; 7 evaluable): 3
ANC response, patients with ANC < 1000: Responders (number) (MDS; 8 evaluable): 3
ANC response, patients with ANC < 1000: Responders (percent) (MDS; 8 evaluable): 38.5%
ANC response, patients with ANC > 1000: Responders (number) (MDS; 9 evaluable): 2
ANC response, patients with ANC > 1000: Responders (percent) (MDS; 9 evaluable): 22%
Platelets ≧ 50% ↑: Responders (number) (MDS; 9 evaluable): 3
Platelets ≧ 50% ↑: Responders (percent) (MDS; 9 evaluable): 33%
RBC Transfusion (≦50% ↓): Responders (number) (MDS; 13 evaluable): 0
Retic count ≧ 50% ↑: Responders (number) (MDS; 14 evaluable): 10
Retic count ≧ 50% ↑: Responders (percent) (MDS; 14 evaluable): 71%
ANC ≧ 50% ↑: Responders (number) (MDS; [9]): 5
ANC ≧ 50% ↑: Responders (percent) (MDS; [9]): 29%
fatigue (grade I/II): patients (MDS; MDS patients, s.c. amifostine): four patients
local reaction (grade III): patients (MDS; MDS patients, s.c. amifostine): one patient
metallic taste (grade I/II): patients (MDS; MDS patients, s.c. amifostine): one patient
nausea (grade I/II): patients (MDS; MDS patients, s.c. amifostine): one patient
rash (grade I/II): patients (MDS; MDS patients, s.c. amifostine): six patients
vomiting (grade I/II): patients (MDS; MDS patients, s.c. amifostine): one patient
Headache: subjects who reported the adverse event [2, 10]: 1008
Hypotension: subjects who reported the adverse event [2, 10]: 1003
Lightheadedness: subjects who reported the adverse event [2, 10]: 1003
Somnolence: subjects who reported the adverse event [2, 10]: 1008
Vomiting: subjects who reported the adverse event [2, 10]: 1008
Hypotension: subjects who reported the adverse event [2, 11]: one subject
Nausea: subjects who reported the adverse event [2, 11]: five subjects
Vomiting: subjects who reported the adverse event [2, 11]: one subject
Hypotension: subjects who reported the adverse event [2, 12]: 1003
Lightheadedness: subjects who reported the adverse event [2, 12]: 1003
Hypotension: subjects who reported the adverse event ([2]; Oral 500 mg, N = 12, table cells give subject numbers, listed as amifostine): one subject
incidence of hypotension ([2]; Subcutaneous 500 mg, N = 12): no incidence
Nausea: subjects who reported the adverse event ([2]; Subcutaneous 500 mg, N = 12, table cells give subject numbers): 1002
Nausea: subjects who reported the adverse event ([2]; Subcutaneous 500 mg, N = 12, table cells give subject numbers, listed as amifostine): one subject
Grade 2 or higher laboratory toxicity (NCI Common Toxicity Criteria) ([2]; after last dose, 12 subjects): none of the subjects
serum creatinine value, Subject 1010 ([2]; after last dose, baseline 0.90 mg/dL, reference range 0.70 to 1.40 mg/dL): 0.60 mg/dL
changes in physical examination, weight and vital signs ([2]; after the last dose of amifostine): No remarkable changes
severity of adverse events ([2]; all three routes): mild in severity, transient
discontinuation due to adverse events ([2]; all three routes, 12 subjects): No subject discontinued
subjects who reported adverse events ([2]; intravenous amifostine, 12 subjects): Five subjects
subjects who reported adverse events ([2]; oral amifostine, 12 subjects): one subject
tolerability ([2]; regardless of route of administration): well tolerated
subjects who reported adverse events ([2]; subcutaneous amifostine, 12 subjects): one subject
formation of CFU-GEMM, BFU-E and CFU-GM colonies [3]: produced bone marrow colonies
radioprotection (mucositis) of SC versus IV administration (mucositis): comparable to IV administration
rate of acute xerostomia with subcutaneous versus IV amifostine ([4]; SC amifostine + RT): comparable rate
Erythema (score) [5, 14]: 0.5 and 0
Oedema (score) [5, 14]: 1 and 0 and 0.5
Erythema (score) [5, 15]: 0.5 and 0
Oedema (score) [5, 15]: 1 and 0 and 0.5
Oedema (score) ([5]; Amifostine (l.p.) at 200 mg/kg + Irradiation (16.5 Gy), day 12 after treatment, 200 mg/kg): 2 and 1 and 0.5
Erythema (score) [5, 16]: 0.5 and 2 and 1
Oedema (score) [5, 16]: 0.5 and 2 and 1
Erythema (score) [5, 17]: 0.5 and 2 and 1 and 0
Oedema (score) [5, 17]: 0.5 and 2 and 1 and 0
Oedema (score) ([5]; Amifostine (l.p.) at 400 mg/kg + Irradiation (16.5 Gy), day 6 after treatment, 400 mg/kg): 0.5 and 0
Oedema (score) ([5]; Amifostine (l.p.) at 400 mg/kg + Irradiation (16.5 Gy), day 7 after treatment, 400 mg/kg): 0.5 and 0
Erythema (score) ([5]; Amifostine (l.p.) at 400 mg/kg + Irradiation (16.5 Gy), day 12 after treatment, 400 mg/kg): 3 and 1 and 2
Erythema (score) [5, 18]: 0 and 0.5
Oedema (score) [5, 18]: 0.5 and 0
Erythema (score) [5, 19]: 0 and 0.5
Oedema (score) [5, 19]: 0.5 and 0
Erythema (score) ([5]; Amifostine (s.c.) at 200 mg/kg + Irradiation (16.5 Gy), day 7 after treatment, 200 mg/kg): 0 and 0.5
Erythema (score) [5, 20]: 0.5 and 1 and 3
Oedema (score) [5, 20]: 0.5 and 1 and 2
Erythema (score) ([5]; Amifostine (s.c.) at 200 mg/kg + Irradiation (16.5 Gy), day 13 after treatment, 200 mg/kg): 1 and 0.5 and 2
Oedema (score) ([5]; Amifostine (s.c.) at 200 mg/kg + Irradiation (16.5 Gy), day 14 after treatment, 200 mg/kg): 0.5 and 1 and 0
Oedema (score) ([5]; Amifostine (s.c.) at 400 mg/kg + Irradiation (16.5 Gy), day 6 after treatment, 400 mg/kg): 1 and 0.5 and 0
Oedema (score) ([5]; Amifostine (s.c.) at 400 mg/kg + Irradiation (16.5 Gy), day 7 after treatment, 400 mg/kg): 0.5 and 0
Erythema (score) ([5]; Amifostine (s.c.) at 400 mg/kg + Irradiation (16.5 Gy), day 13 after treatment, 400 mg/kg): 1 and 0 and 0.5
Erythema (score) [5, 21]: 1 and 0 and 0.5
Oedema (score) [5, 21]: 1 and 0 and 0.5
mucosal edema scores as compared to saline plus irradiation ([5]; both injection methods (i.p., s.c.)): decreased
average erythema score as compared to saline plus irradiation ([5]; i.p and s.c. administration): decreased
reduction in body weight after irradiation ([5]; i.p. or s.c. injection of amifostine, irradiated mice): prevented
effect of increasing the dose from 200 mg/kg to 400 mg/kg ([5]; irradiated mice): minimal additional benefits
efficacy at the time points of maximal adverse effects (day 9 body weight, day 12 erythema and edema) ([5]; subcutaneous, 200 mg/kg): highest efficacy
≧Grade 2 acute xerostomia Incidence, All patients ([7]; 200 mg/m^2 3 minute infusion 15 to 30 minutes before RT, N 148): 51%
≧Grade 2 acute xerostomia Incidence, Patients receiving ≧60 Gy RT ([7]; 200 mg/m^2): 51%
≧Grade 2 acute xerostomia, Median cumulative RT dose to onset ([7]; 200 mg/m^2): 60 Gy
≧Grade 2 acute xerostomia, Median time to onset ([7]; 200 mg/m^2): 45 days

absolute bioavailability of the active metabolite [6]: 0.53
time after administration at which concentration fell below 5 μM, WR-1065 ([6]; iv): approximately 45 minutes
time after administration at which concentration fell below 5 μM, WR-1065 ([6]; sc): approximately 60 minutes
peak levels (maximum whole blood concentration) ([6]; male, iv): about 23 μM
maximum blood levels ([6]; male, sc): ~4 µM
time to maximum and sustained whole blood concentration ([6]; male, sc): 15 to 45 min
SMILES: NCCCNCCS [WR-1065, 2-[3-aminopropylamino]ethanethiol]

Reference: patent US6573253B2, “Methods for the administration of amifostine and related compounds” (MedImmune Oncology Inc., priority 1997, dated 2003)
